Reference: patent US20180289692A1, “TLR MODULATORS AND METHODS OF USE” (CELGENE CORPORATION, priority 2015, published 2018)
Oligonucleotides are written 5' to 3', each unit as a sugar letter and its base; * is a phosphorothioate linkage, no mark a phosphodiester; rarer units and linkages stand in square brackets, end groups in braces. Plain capitals give the bases only. d = 2'-deoxy (DNA)

Legend:
[1] = system: canonical NF-κB promoter reporter; assay: Canonical NF-κB promoter reporter construct in RAW264.7 macrophage cells (FIG. 10); format: cell-based, mouse; conditions: 24 hrs
Procedure: Mouse RAW264.7 macrophage cells containing a reporter construct driven by a canonical NF-κB promoter were plated in 96-well plates at 50,000 cells/well. […] The supernatant was harvested and tested for optical density.

TLR9 = molecular target: T1, TLR9 (Homo sapiens, UniProt Q9NR96); assay: NF-κB reporter gene in recombinant TLR9-expressing HEK293 cells; format: cell-based
T1 construct: expressed in transfected cells; host or cells: TLR9 expressing HEK293 reporter cells with a human NF-κB reporter construct
T1 sequence (Q9NR96 26-1032): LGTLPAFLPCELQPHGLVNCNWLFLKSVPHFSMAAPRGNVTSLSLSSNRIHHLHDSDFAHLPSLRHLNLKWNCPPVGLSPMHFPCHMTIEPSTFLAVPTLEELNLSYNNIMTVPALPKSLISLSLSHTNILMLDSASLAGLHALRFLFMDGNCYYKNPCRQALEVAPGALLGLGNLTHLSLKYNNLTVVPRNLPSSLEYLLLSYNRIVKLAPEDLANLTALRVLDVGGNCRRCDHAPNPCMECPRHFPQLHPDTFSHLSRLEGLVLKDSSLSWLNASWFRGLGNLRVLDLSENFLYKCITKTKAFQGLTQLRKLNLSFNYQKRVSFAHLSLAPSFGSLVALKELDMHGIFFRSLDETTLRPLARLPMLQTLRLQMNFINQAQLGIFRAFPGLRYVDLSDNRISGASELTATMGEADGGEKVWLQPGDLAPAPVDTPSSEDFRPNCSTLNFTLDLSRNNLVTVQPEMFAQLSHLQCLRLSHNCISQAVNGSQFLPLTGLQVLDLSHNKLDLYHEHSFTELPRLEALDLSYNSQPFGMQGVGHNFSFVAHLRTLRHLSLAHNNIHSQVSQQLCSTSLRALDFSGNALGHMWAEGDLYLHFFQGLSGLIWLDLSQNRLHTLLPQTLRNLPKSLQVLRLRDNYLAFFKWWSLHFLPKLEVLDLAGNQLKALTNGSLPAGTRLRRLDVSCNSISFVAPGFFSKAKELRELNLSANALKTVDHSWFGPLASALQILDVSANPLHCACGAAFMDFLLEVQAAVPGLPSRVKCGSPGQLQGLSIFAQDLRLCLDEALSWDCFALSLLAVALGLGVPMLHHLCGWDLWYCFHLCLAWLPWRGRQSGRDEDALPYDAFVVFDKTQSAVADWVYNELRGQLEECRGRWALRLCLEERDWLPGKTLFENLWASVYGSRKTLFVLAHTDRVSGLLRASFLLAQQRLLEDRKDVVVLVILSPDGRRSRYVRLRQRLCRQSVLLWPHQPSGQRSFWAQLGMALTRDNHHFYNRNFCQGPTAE
Procedure: FIGS. 16A-B show results of experiments in which recombinant TLR-expressing HEK293 cells carrying an NF-κB reporter gene were incubated with COMPOUND(I), ODN150, ODN2006, or ODN7040 for 48 hours at the indicated concentrations.

purified human pDCs = assay: pDC differentiation, differentiation markers CD86, CD83, CCR6, CCR7 by flow cytometry; format: cell-based; parameters: key: (↑) indicates a weak but detectable activity; (↑↑) and (↑↑↑) indicate different levels of moderate activities; (↑↑) and (↑↑↑) indicate different levels of moderate activities; (↑↑↑↑) indicates a strong activity; (−) indicates no detectable activity; conditions: relative strength, Table 6
[2] = system: canonical NF-κB promoter reporter; assay: Mouse Raw Blue Reporter Cells, SEAP reporter driven by canonical NF-κB promoter (FIG. 11); format: cell-based; conditions: mouse macrophages, 24 hrs
Procedure: Mouse Raw Blue Reporter Cells (Invivogen), containing a secreted embryonic alkaline phosphatase (SEAP) reporter gene driven by canonical NF-κB promoter, were plated in 96-well plates at 50,000 cells/well in DMEM Media supplemented with 10% FBS, 2 mM L-glutamine, 1% Pen/Strep, […] Normacin. […] The supernatant was harvested and tested for SEAP production by measuring OD at 630 nm.

## ODN150: 5′-G*G*A*ACAGTTCGTCCAT*G*G*C-3′, PO except * = PS; antisense to p65 of NF-kB mRNA; tested clinically for ulcerative colitis (DNA dG*dG*dA*dAdCdAdGdTdTdCdGdTdCdCdAdT*dG*dG*dC)
[1]; 0.1-100 μM
  activation of the NF-κB construct: Moderate activation
[1]
  ODN concentration at which activation of the NF-κB construct was observed: 100 µM
TLR9; Reporter Cell, relative strength, Table 6
  TLR pathway activation (NF-κB): ↑ ↑
TLR9; TLR9-expressing HEK293 cells, 48 hours, FIGS. 16A-B
  NF-κB reporter gene activation: concentration-dependent NF-kB induction
Purified human pDCs
  pDC differentiation: ↑
[2]
  concentration from which the NF-κB reporter is activated: 10 µM
[2]; SEAP, COMPOUND (I) up to 10 μM
  activation of canonical NF-κB reporter: activate
